Reference: PubChem BioAssay (NCI)
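Step 1: Grow cells in 96-well plates. Step 2: Expose to compound for 48 hours at 5 concentrations. Step 3: Interpolate endpoints linearly; if unreached, use highest concentration. Here, GI50 denotes the concentration required for 50% inhibition of growth. TGI: concentration producing complete growth inhibition.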

Tests used:
Assay in all cases: growth of human tumour cells (NCI), 48 h
[1] = system: 786-0 renal
[2] = system: A498 renal
[3] = system: A549 NSCLC
[4] = system: ACHN renal
[5] = system: BT-549 breast
[6] = system: CAKI-1 renal
[7] = system: CCRF-CEM leukemia
[8] = system: COLO 205 colon
[9] = system: DU-145 prostate
[10] = system: EKVX NSCLC
[11] = system: HCC-2998 colon
[12] = system: HCT-116 colon
[13] = system: HCT-15 colon
[14] = system: HL-60(TB) leukemia
[15] = system: HOP-62 NSCLC
[16] = system: HOP-92 NSCLC
[17] = system: HS 578T breast
[18] = system: HT29 colon
[19] = system: IGROV1 ovarian
[20] = system: K-562 leukemia
[21] = system: KM12 colon
[22] = system: LOX IMVI melanoma
[23] = system: M14 melanoma
[24] = system: MALME-3M melanoma
[25] = system: MCF7 breast
[26] = system: MDA-MB-231 breast
[27] = system: MDA-MB-435
[28] = system: MOLT-4 leukemia
[29] = system: NCI-H226 lung
[30] = system: NCI-H23 lung
[31] = system: NCI-H460 lung
[32] = system: NCI-H522 lung
[33] = system: NCI/ADR-RES ovarian
[34] = system: OVCAR-3 ovarian
[35] = system: OVCAR-4 ovarian
[36] = system: OVCAR-5 ovarian
[37] = system: OVCAR-8 ovarian
[38] = system: PC-3 prostate
[39] = system: RPMI-8226 leukemia
[40] = system: RXF 393 renal
[41] = system: SF-268 CNS
[42] = system: SF-295 CNS
[43] = system: SF-539 CNS
[44] = system: SK-MEL-2 melanoma
[45] = system: SK-MEL-28 melanoma
[46] = system: SK-MEL-5 melanoma
[47] = system: SK-OV-3 ovarian
[48] = system: SN12C renal
[49] = system: SNB-19 CNS
[50] = system: SNB-75 CNS
[51] = system: SR leukemia
[52] = system: SW-620 colon
[53] = system: T-47D breast
[54] = system: TK-10 renal
[55] = system: U251 CNS
[56] = system: UACC-257 melanoma
[57] = system: UACC-62 melanoma
[58] = system: UO-31 renal

## CC1=C(SCCC(=O)OCC(=O)NCCC[Te]c2ccccc2)C(=O)c2ccccc2C1=O
[1]
  GI50: 2640 nM
  TGI: 7330 nM
[2]
  GI50: 1900 nM
  TGI: 6160 nM
[3]
  GI50: 793 nM
  TGI: 2950 nM
[4]
  GI50: 2760 nM
  TGI: 10200 nM
[5]
  GI50: 1700 nM
  TGI: 3950 nM
[6]
  GI50: 1860 nM
  TGI: 6870 nM
[7]
  GI50: 2100 nM
  TGI: 19600 nM
[8]
  GI50: 1970 nM
  TGI: 3880 nM
[9]
  GI50: 2950 nM
  TGI: 8050 nM
[10]
  GI50: 443 nM
  TGI: 5110 nM
[11]
  GI50: 1780 nM
  TGI: 4580 nM
[12]
  GI50: 1630 nM
  TGI: 4120 nM
[13]
  GI50: 2730 nM
  TGI: 11400 nM
[14]
  GI50: 2580 nM
  TGI: 7070 nM
[15]
  GI50: 2040 nM
  TGI: 5190 nM
[16]
  GI50: 1800 nM
  TGI: 5010 nM
[17]
  GI50: 2970 nM
  TGI: > 33700 nM
[18]
  GI50: 3290 nM
  TGI: 11100 nM
[19]
  GI50: 1920 nM
  TGI: 5580 nM
[20]
  GI50: 3300 nM
  TGI: 19400 nM
[21]
  GI50: 2960 nM
  TGI: 10100 nM
[22]
  GI50: 1720 nM
  TGI: 4070 nM
[23]
  GI50: 2110 nM
  TGI: 5270 nM
[24]
  GI50: 2220 nM
  TGI: 5560 nM
[25]
  GI50: 2500 nM
  TGI: 10700 nM
[26]
  GI50: 1800 nM
  TGI: 4340 nM
[27]
  GI50: 3070 nM
  TGI: 10400 nM
[28]
  GI50: 3120 nM
  TGI: 12200 nM
[29]
  GI50: 1640 nM
  TGI: 3640 nM
[30]
  GI50: 1840 nM
  TGI: 5250 nM
[31]
  GI50: 790 nM
  TGI: 3000 nM
[32]
  GI50: 2710 nM
  TGI: 10800 nM
[33]
  GI50: 2220 nM
  TGI: 7320 nM
[34]
  GI50: 2230 nM
  TGI: 4810 nM
[35]
  GI50: 2210 nM
  TGI: 7340 nM
[36]
  GI50: 2860 nM
  TGI: 7680 nM
[37]
  GI50: 2740 nM
  TGI: 11000 nM
[38]
  GI50: 1960 nM
  TGI: 9760 nM
[39]
  GI50: 2640 nM
  TGI: 9840 nM
[40]
  GI50: 1780 nM
  TGI: 5160 nM
[41]
  GI50: 2610 nM
  TGI: 9420 nM
[42]
  GI50: 1110 nM
  TGI: 4240 nM
[43]
  GI50: 2290 nM
  TGI: 6710 nM
[44]
  GI50: 2750 nM
  TGI: 7240 nM
[45]
  GI50: 2410 nM
  TGI: 5780 nM
[46]
  GI50: 1520 nM
  TGI: 2880 nM
[47]
  GI50: 1900 nM
  TGI: 4620 nM
[48]
  GI50: 2210 nM
  TGI: 7990 nM
[49]
  GI50: 2780 nM
  TGI: 10400 nM
[50]
  GI50: 1370 nM
  TGI: 5420 nM
[51]
  GI50: 1970 nM
  TGI: 17400 nM
[52]
  GI50: 3790 nM
  TGI: 15600 nM
[53]
  GI50: 2200 nM
  TGI: 6210 nM
[54]
  GI50: 3870 nM
  TGI: 12400 nM
[55]
  GI50: 2390 nM
  TGI: 8060 nM
[56]
  GI50: 2880 nM
  TGI: 8230 nM
[57]
  GI50: 1940 nM
  TGI: 4830 nM
[58]
  GI50: 1740 nM
  TGI: 8660 nM

## COc1cc2c(cc1O)N=C[C@@H]1C[C@@H](F)CN1C2=O
[1]
  GI50: 2050 nM
  TGI: 12300 nM
[2]
  GI50: 938 nM
  TGI: 2890 nM
[3]
  GI50: 7970 nM
  TGI: > 19700 nM
[4]
  GI50: 2580 nM
  TGI: 6150 nM
[5]
  GI50: 869 nM
  TGI: 5830 nM
[6]
  GI50: 281 nM
  TGI: 1500 nM
[7]
  GI50: 304 nM
  TGI: 3300 nM
[8]
  GI50: 3180 nM
  TGI: 11500 nM
[9]
  GI50: 964 nM
  TGI: 8860 nM
[10]
  GI50: 2850 nM
  TGI: 9800 nM
[11]
  GI50: 1980 nM
  TGI: 5660 nM
[12]
  GI50: 1830 nM
  TGI: 5940 nM
[13]
  GI50: 2890 nM
  TGI: 9330 nM
[14]
  GI50: 588 nM
  TGI: 10100 nM
[15]
  GI50: 2550 nM
  TGI: 9650 nM
[16]
  GI50: 269 nM
  TGI: 719 nM
[17]
  GI50: 96.4 nM
  TGI: 2130 nM
[18]
  GI50: 4100 nM
  TGI: > 44000 nM
[19]
  GI50: 1650 nM
  TGI: 8970 nM
[20]
  GI50: 367 nM
  TGI: 4810 nM
[21]
  GI50: 1810 nM
  TGI: 5040 nM
[22]
  GI50: 2030 nM
  TGI: 7210 nM
[23]
  GI50: 1610 nM
  TGI: 3730 nM
[24]
  GI50: 789 nM
  TGI: 2880 nM
[25]
  GI50: 608 nM
  TGI: 9060 nM
[26]
  GI50: 1840 nM
  TGI: 6210 nM
[27]
  GI50: 1550 nM
  TGI: 3510 nM
[28]
  GI50: 283 nM
  TGI: 1230 nM
[29]
  GI50: 2370 nM
  TGI: 5390 nM
[30]
  GI50: 1820 nM
  TGI: 4440 nM
[31]
  GI50: 1790 nM
  TGI: 4610 nM
[32]
  GI50: 289 nM
  TGI: 970 nM
[33]
  GI50: 1870 nM
  TGI: 6150 nM
[34]
  TGI: 808 nM
[35]
  GI50: 3930 nM
  TGI: 14500 nM
[36]
  GI50: 965 nM
  TGI: 6660 nM
[37]
  GI50: 6370 nM
  TGI: 13900 nM
[38]
  GI50: 1830 nM
  TGI: 9180 nM
[39]
  GI50: 216 nM
  TGI: 552 nM
[40]
  GI50: 898 nM
  TGI: 2160 nM
[41]
  GI50: 449 nM
  TGI: 9970 nM
[42]
  GI50: 712 nM
  TGI: 4330 nM
[43]
  GI50: 1190 nM
  TGI: 4320 nM
[44]
  GI50: 1160 nM
[45]
  GI50: 2900 nM
  TGI: 9390 nM
[46]
  GI50: 817 nM
  TGI: 2320 nM
[47]
  GI50: 5910 nM
  TGI: 18300 nM
[48]
  GI50: 2520 nM
  TGI: 8710 nM
[49]
  GI50: 2790 nM
  TGI: 8660 nM
[50]
  GI50: 15500 nM
  TGI: 52400 nM
[51]
  GI50: 173 nM
  TGI: 602 nM
[52]
  GI50: 1160 nM
  TGI: 4900 nM
[53]
  GI50: 5290 nM
  TGI: 32200 nM
[54]
  GI50: 1900 nM
  TGI: 13000 nM
[55]
  GI50: 1830 nM
  TGI: 10900 nM
[56]
  GI50: 17500 nM
  TGI: 34400 nM
[57]
  GI50: 1810 nM
  TGI: 3460 nM
[58]
  GI50: 1140 nM
  TGI: 9620 nM
